PubChem BioAssay AID256 (DTP/NCI, 2004)
Where “and” joins values, the source holds several entries; their conditions need not be identical. Identical values can stand only once. Inconclusive results and toxic doses are left out. How the source made its calls: active means survival T/C of 150% or more; inactive means T/C below 125% in these data.

Tested on: CD2F1 mice, L1210 leukemia ip, survival T/C
Experiment: NCI In Vivo Anticancer Drug Screen. Data for tumor model L1210 Leukemia (intraperitoneal) in CD2F1 (CDF1) mice
Settings: endpoint: mean survival time, higher = longer survival
Procedure, shortened: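 Read-out first: treated-group measurement over vehicle-control measurement, expressed as a ratio. Animals bore a transplanted tumor line and were dosed with compound or vehicle.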

[1] = dose: 100.0 mg/kg/injection, schedule: Q01DX001 (ip), vehicle: saline with Tween-80
[2] = dose: 400.0 mg/kg/injection, schedule: Q01DX001 (ip), vehicle: saline with Tween-80
[3] = dose: 100.0 mg/kg/injection, schedule: Q04DX002 (ip), vehicle: saline with Tween-80
[4] = dose: 200.0 mg/kg/injection, schedule: Q04DX002 (ip), vehicle: saline with Tween-80
[5] = dose: 400.0 mg/kg/injection, schedule: Q04DX002 (ip), vehicle: saline with Tween-80
[6] = dose: 100.0 mg/kg/injection, schedule: Q04DX003 (ip), vehicle: saline with Tween-80
[7] = dose: 200.0 mg/kg/injection, schedule: Q01DX009 (ip), vehicle: saline with Tween-80
[8] = dose: 200.0 mg/kg/injection, schedule: Q04DX003 (ip), vehicle: saline with Tween-80
[9] = dose: 400.0 mg/kg/injection, schedule: Q04DX003 (ip), vehicle: saline with Tween-80
[10] = dose: 100.0 mg/kg/injection, schedule: Q01DX001 (ip), vehicle: saline
[11] = dose: 200.0 mg/kg/injection, schedule: Q01DX001 (ip), vehicle: saline
[12] = dose: 200.0 mg/kg/injection, schedule: Q01DX001 (ip), vehicle: saline with Tween-80
[13] = dose: 100.0 mg/kg/injection, schedule: Q01DX009 (ip), vehicle: saline with Tween-80
[14] = dose: 400.0 mg/kg/injection, schedule: Q01DX009 (ip), vehicle: saline with Tween-80
[15] = dose: 50.0 mg/kg/injection, schedule: Q01DX009 (ip), vehicle: Klucel (hydroxypropylcellulose) (HPC)
[16] = dose: 100.0 mg/kg/injection, schedule: Q01DX009 (ip), vehicle: Klucel (hydroxypropylcellulose) (HPC)
[17] = dose: 200.0 mg/kg/injection, schedule: Q01DX009 (ip), vehicle: Klucel (hydroxypropylcellulose) (HPC)
[18] = dose: 400.0 mg/kg/injection, schedule: Q01DX009 (ip), vehicle: Klucel (hydroxypropylcellulose) (HPC)
[19] = dose: 25.0 mg/kg/injection, schedule: Q01DX009 (ip), vehicle: Klucel (hydroxypropylcellulose) (HPC)
[20] = dose: 400.0 mg/kg/injection, schedule: Q01DX001 (ip), vehicle: saline

Measured: T/C

CN(Cc1ccc(C(=O)NC(CCC(=O)O)C(=O)O)cc1)Cc1cnc2nc(N)nc(N)c2n1 (stereo not given)
inactive: dose: 1.0 mg/kg/injection, schedule: Q01DX009 (ip), vehicle: water 96 % of control | dose: 10.0 mg/kg/injection, schedule: Q01DX009 (ip), vehicle: water 114 % of control

NC(=O)C(NCCn1cnc2c(N)ncnc21)C(N)=O
inactive: dose: 1.25 mg/kg/injection, schedule: Q01DX005 (ip), vehicle: water 92 % of control | dose: 2.5 mg/kg/injection, schedule: Q01DX005 (ip), vehicle: water 92 % of control | dose: 5.0 mg/kg/injection, schedule: Q01DX005 (ip), vehicle: water 92 % of control | dose: 10.0 mg/kg/injection, schedule: Q01DX005 (ip), vehicle: water 95 % of control | dose: 20.0 mg/kg/injection, schedule: Q01DX005 (ip), vehicle: water 95 % of control

N#Cc1cc(Cl)c(OCc2ccccc2)c(Cl)c1
inactive: [1] 87 % of control | [2] 101 % of control

O=C1C=Cc2ccccc2/C1=C/c1nc(/C=C/c2ccccc2)oc1O
inactive: [3] 117 % of control | [4] 113 % of control | [5] 105 % of control

CCC(=O)Oc1ccc(C2N(Cc3ccc(N(C)C)cc3)CCCN2Cc2ccc(N(C)C)cc2)cc1
inactive: [6] 103 % of control | [7] 89 % of control | [8] 92 % of control

CC(CCC(C)(C)O)C1CCC2C3C(O)CC4CCCCC4(C)C3CC(O)C12C (stereo not given)
inactive: [9] 88 % of control

c1ccc(Oc2ccc(-c3ccc(Oc4ccccc4)cc3)cc2)cc1
inactive: [8] 95 % of control | [9] 91 % of control

CC1CCC[N-]C1.CC1CCC[N-]C1.CC1CCC[N-]C1.CC1CCC[N-]C1.[Cl][Rh][Cl] (stereo not given)
inactive: dose: 4.0 mg/kg/injection, schedule: Q01DX009 (ip), vehicle: saline 109 % of control | dose: 6.0 mg/kg/injection, schedule: Q01DX009 (ip), vehicle: saline 122 % of control | dose: 9.0 mg/kg/injection, schedule: Q01DX009 (ip), vehicle: saline 114 % of control

C(CCSC1=NCCN1)CSC1=NCCN1
inactive: dose: 25.0 mg/kg/injection, schedule: Q04DX002 (ip), vehicle: saline 96 % of control | dose: 50.0 mg/kg/injection, schedule: Q04DX002 (ip), vehicle: saline 107 % of control | dose: 100.0 mg/kg/injection, schedule: Q04DX002 (ip), vehicle: saline 90 % of control

Nn1cnnc1
inactive: [10] 98 % of control | [11] 93 % of control

CCOc1ccc(N=Cc2ccccc2O)cc1
inactive: [1] 94 % of control | [12] 94 % of control | [2] 87 % of control

Cc1ccc(N=Nc2ccc(N(C)C)cc2)c2cccnc12
inactive: [13] 104 % of control

CCCCCCCC(=O)Nc1c(C)cccc1C
inactive: [13] 96 % of control | [7] 88 % of control | [14] 91 % of control

OC1C2CCC1C(N1CCOCC1)CC2 (stereo not given)
inactive: dose: 50.0 mg/kg/injection, schedule: Q01DX009 (ip), vehicle: saline with Tween-80 103 % of control | [13] 109 % of control | [6] 98 % of control | [7] 97 % of control | [8] 102 % of control

C=CCSc1ncnc2c1c1c(N)ncnc1n2C1OC(CO)C(O)C1O (stereo not given)
inactive: dose: 6.25 mg/kg/injection, schedule: Q01DX005 (ip), vehicle: other 103 % of control | dose: 12.5 mg/kg/injection, schedule: Q01DX005 (ip), vehicle: other 109 % of control | dose: 25.0 mg/kg/injection, schedule: Q01DX005 (ip), vehicle: other 101 % of control | dose: 50.0 mg/kg/injection, schedule: Q01DX005 (ip), vehicle: other 107 % of control | dose: 100.0 mg/kg/injection, schedule: Q01DX005 (ip), vehicle: other 103 % of control | dose: 200.0 mg/kg/injection, schedule: Q01DX005 (ip), vehicle: other 109 % of control

CC(=O)OCC1OC(Oc2c(Br)cc(Br)cc2Br)C(OC(C)=O)C(OC(C)=O)C1OC(C)=O (stereo not given)
inactive: [13] 96 % of control | [7] 94 % of control | [14] 96 % of control

C[N+](C)(C)CCOC(=O)CCC(=O)OCC[N+](C)(C)C
inactive: dose: 0.31 mg/kg/injection, schedule: Q01DX009 (ip), vehicle: saline sonified 92 % of control | dose: 0.63 mg/kg/injection, schedule: Q01DX009 (ip), vehicle: saline sonified 96 % of control | dose: 1.25 mg/kg/injection, schedule: Q01DX009 (ip), vehicle: saline sonified 103 % of control | dose: 6.25 mg/kg/injection, schedule: Q04DX003 (ip), vehicle: saline 101 % of control | dose: 12.5 mg/kg/injection, schedule: Q04DX003 (ip), vehicle: saline 100 % of control

O=C1Nc2ccccc2/C1=C\c1ccccc1O
inactive: [15] 93 % of control | [16] 87 % of control | [17] 96 % of control | [18] 96 % of control

CC(=O)Nc1ccc(S(N)(=O)=O)cc1
inactive: [19] 100 % of control | [15] 95 % of control | [16] 100 % of control

Cc1nc(/N=C(/N)N(C)C)[nH]c(=O)c1C
inactive: [10] 97 % of control | [11] 103 % of control | [20] 109 % of control

CCOC(=O)CCN(C)C
inactive: dose: 100.0 mg/kg/injection, schedule: Q04DX003 (ip), vehicle: saline 97 % of control | dose: 200.0 mg/kg/injection, schedule: Q04DX003 (ip), vehicle: saline 100 % of control | dose: 400.0 mg/kg/injection, schedule: Q04DX003 (ip), vehicle: saline 100 % of control

CC(=O)Nc1cc(N)cc(-c2ccccc2)c1
inactive: dose: 50.0 mg/kg/injection, schedule: Q04DX002 (ip), vehicle: saline with Tween-80 96 % of control and 104 % of control | [6] 94 % of control and 97 % of control | [8] 90 % of control and 94 % of control | [9] 94 % of control and 100 % of control

C#CCOC(=O)NC1CCCCC1
inactive: dose: 100.0 mg/kg/injection, schedule: Q04DX003 (ip), vehicle: Klucel (hydroxypropylcellulose) (HPC) 104 % of control | dose: 200.0 mg/kg/injection, schedule: Q04DX003 (ip), vehicle: Klucel (hydroxypropylcellulose) (HPC) 105 % of control | dose: 400.0 mg/kg/injection, schedule: Q04DX003 (ip), vehicle: Klucel (hydroxypropylcellulose) (HPC) 102 % of control

C=CCCCCCCCCC(=O)NC(C)COC (stereo not given)
inactive: [1] 107 % of control | [12] 98 % of control

N=C1N(c2ccccc2)CCN1c1ccccc1
inactive: dose: 6.25 mg/kg/injection, schedule: Q04DX003 (ip), vehicle: saline with Tween-80 94 % of control | dose: 12.5 mg/kg/injection, schedule: Q04DX003 (ip), vehicle: saline with Tween-80 92 % of control

CC1(C#N)CCC(=O)N1 (stereo not given)
inactive: [10] 95 % of control | [11] 95 % of control | [20] 93 % of control

Cc1ccc(C(=O)O)s1
inactive: [6] 91 % of control | [8] 97 % of control

Oc1ccc(CCNCc2cc3c(cc2Br)OCO3)cc1
inactive: [1] 104 % of control | [12] 96 % of control | [2] 104 % of control

Nc1cccc(CCCCc2ccc(Cl)c(S(=O)(=O)F)c2)c1
inactive: [13] 94 % of control | [6] 106 % of control | [7] 97 % of control | [8] 106 % of control | [9] 108 % of control

COC1=C(OC)C(C(O)CO)OC1=O (stereo not given)
inactive: dose: 25.0 mg/kg/injection, schedule: Q01DX009 (ip), vehicle: water 93 % of control | dose: 50.0 mg/kg/injection, schedule: Q01DX009 (ip), vehicle: water 89 % of control | dose: 100.0 mg/kg/injection, schedule: Q01DX009 (ip), vehicle: water 100 % of control | dose: 200.0 mg/kg/injection, schedule: Q01DX009 (ip), vehicle: water 94 % of control | dose: 400.0 mg/kg/injection, schedule: Q01DX009 (ip), vehicle: water 100 % of control

CNC(=O)c1n[nH]c(C)c1[N+](=O)[O-]
inactive: [19] 107 % of control | [15] 107 % of control | [16] 107 % of control | [17] 104 % of control | [18] 102 % of control

NC(CSCc1ccccc1)C(=O)OCc1ccccc1 (stereo not given)
inactive: [6] 104 % of control | [8] 102 % of control | [9] 104 % of control

CC12CCC=CC1=CC(=O)CC2 (stereo not given)
inactive: [3] 96 % of control | [4] 100 % of control | [5] 124 % of control
